How the values were obtained:
[1] = system: HeLa cells; assay: Cellular ATP levels, luciferase‐based assay (CellTiter‐Glo); type: cell-based, human; conditions: 3 h, percentage of control, mean ± SE (n = 3) (Fig. 4F)
Procedure: Cellular ATP levels were estimated using a luciferase‐based assay (CellTiter‐Glo; Promega). […] ATP levels were assayed according to the manufacturer's protocol, and luminescence was recorded using an Infinite M1000 plate reader (Tecan, Männedorf, Switzerland).

[2] = system: U‐87MG; assay: Cell death, PI staining and FACS; type: cell-based; conditions: anti‐TfR antibodies (1 : 250) 2 h, then peptide 5 μM 3 h, n = 2 (Fig. 3C)
Procedure: Leukemia cells, U‐937, MEC‐1 cells (4 × 10^5 or 8 × 10^5 cells/sample, respectively), as well as other leukemia or suspension cell lines, were incubated in 200 μL serum‐free medium with various concentrations of the peptide for 90 min at 23–25 °C, collected by centrifugation (500 g, 5 min), washed with PBS, and analyzed for cell death. Adherent cells (6 × 10^5 mL^−1 at 70–80% confluence) were incubated with the peptide of interest in 500 μL serum‐free recommended culture medium for 3–6 h at 37 °C and 5% CO2. The cells were then trypsinized, centrifuged (1500 g, 5 min), washed with PBS, and analyzed for the desired activity. Following peptide treatment, cells were subjected to cell death analysis. […] PRO software (BD Biosciences, San Jose, CA, USA).
For each line, cells were incubated with different peptide concentrations, and cell death was determined by PI staining and FACS analysis (Figs 1, 2, 3).

[3] = system: A549 cells (HK‐I in cytosolic fraction); assay: Mitochondria‐bound HK detachment, cell fractionation and immunoblotting; type: cell-based, human; conditions: A549, peptide 3, 5, 10 μM, 3 h; digitonin […]; immunoblot (Fig. 4E)
Procedure: Peptide‐induced HK detachment from mitochondria to the cytosol was also analyzed by immunoblotting. […] Samples were centrifuged at 12 000 g at 4 °C for 10 min, and the obtained supernatants (cytosolic fraction) and pellets (mitochondria) were analyzed by immunoblotting using anti‐HK‐I, anti‐VDAC1, and anti‐GAPDH antibodies, and then with secondary HRP‐conjugated antibodies.

[4] = system: A549 cells; assay: Apoptosis, acridine orange/ethidium bromide staining; type: cell-based, human; conditions: A549, 3 h; quantitation, mean ± SE (n = 3) (Fig. 5E)
Procedure: For PI and annexin V–FITC staining, A549 or MDA‐MB‐231 cells, untreated or treated with VDAC1‐based peptides, were collected (1500 g for 5 min), washed, and resuspended in 200 μL binding buffer (10 mM HEPES/NaOH (pH 7.4), 140 mM NaCl, and 2.5 mM CaCl2). Annexin V–FITC staining was performed according to the recommended protocol. Cells were then washed once with binding buffer and resuspended in 200 μL binding buffer, to which PI was added immediately before flow cytometric analysis. At least 10 000 events were collected, recorded on a dot plot, and analyzed by flow cytometer. Acridine orange/ethidium bromide staining was carried as described previously (Zaid et al., 2005), with cells visualized by fluorescence microscopy (Olympus LX2‐KSP, Tokyo, Japan), and images were captured with a CCD camera. About 200 cells were counted for each experiment.

[5] = target: T1, HK‐I (Homo sapiens, UniProt P19367); assay: HK activity assay with purified recombinant HK‐I; type: biochemical; conditions: HK‐I 13 µg/ml pre‐incubated with peptide; 1 mM ATP, G6PDH‐coupled, absorbance at 340 nm (Fig. S3B)
T1 construct: His; made in house; host or cells: Escherichia coli BL21
T1 sequence (P19367 1-917): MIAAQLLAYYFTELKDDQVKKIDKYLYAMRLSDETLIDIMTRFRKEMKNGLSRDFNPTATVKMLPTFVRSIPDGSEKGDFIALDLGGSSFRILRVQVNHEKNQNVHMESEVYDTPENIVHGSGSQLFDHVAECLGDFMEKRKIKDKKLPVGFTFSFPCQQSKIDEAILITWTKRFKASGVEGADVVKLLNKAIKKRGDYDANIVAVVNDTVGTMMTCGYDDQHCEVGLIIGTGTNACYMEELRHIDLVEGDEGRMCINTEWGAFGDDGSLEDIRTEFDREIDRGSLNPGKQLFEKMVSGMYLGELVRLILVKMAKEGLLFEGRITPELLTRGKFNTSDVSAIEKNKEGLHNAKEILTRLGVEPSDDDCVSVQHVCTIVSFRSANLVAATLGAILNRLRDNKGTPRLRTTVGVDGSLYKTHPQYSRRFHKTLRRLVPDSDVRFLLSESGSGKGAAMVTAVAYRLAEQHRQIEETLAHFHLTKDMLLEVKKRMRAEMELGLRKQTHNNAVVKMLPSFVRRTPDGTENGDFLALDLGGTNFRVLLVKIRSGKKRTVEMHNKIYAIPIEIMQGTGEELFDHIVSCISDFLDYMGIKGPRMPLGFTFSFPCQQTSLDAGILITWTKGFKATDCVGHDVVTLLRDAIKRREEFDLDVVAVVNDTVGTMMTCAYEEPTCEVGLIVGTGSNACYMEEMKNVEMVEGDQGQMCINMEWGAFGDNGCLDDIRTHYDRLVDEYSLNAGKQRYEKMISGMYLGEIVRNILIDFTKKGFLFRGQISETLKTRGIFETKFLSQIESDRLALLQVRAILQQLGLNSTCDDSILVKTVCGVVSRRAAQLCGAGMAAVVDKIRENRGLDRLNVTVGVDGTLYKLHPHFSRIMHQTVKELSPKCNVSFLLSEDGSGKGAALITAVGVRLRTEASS
Procedure: Human HK‐I and HK‐II were cloned into plasmid pET‐His DNA and expressed in Escherichia coli BL21 upon IPTG induction. HK was purified from lysed cells using a HiTrap nickel column (GE Healthcare). Following dialysis, the imidazole‐eluted protein was further purified using a Blue HiTrap column (GE Healthcare). HK was eluted using 10 mM glucose, 20 mM Tris/HCl (pH 8.5), 20% glycerol, and 1.5 mM glucose‐6‐phosphate. Fractions were analyzed by SDS/PAGE and tested for HK activity. The purified active fractions were combined and stored in aliquots at −80 °C.
Change in absorbance at 340 nm (NADH production) was spectrophotometrically measured following addition of 1 mM ATP and 0.05 unit·mL^−1 glucose‐6‐phosphate dehydrogenase.
Purified HK-I (13 µg/ml) was pre-incubated with the indicated concentrations of Tf-D-LP4 (●) or R-Tf-D-LP4 (○) and assayed for HK activity as described in Materials and Methods. Change in absorbance at 340 nm (NADH production) was spectrophotometrically measured following addition of 1 mM ATP, and 0.05 unit/ml glucose-6-phosphate dehydrogenase. C. Tf-D-LP4 and R-Tf-D-LP4 solubility. The peptides were dissolved to a final concentration of 5 mM in 5% DMSO and diluted to 1.1 mM in HBSS. Peptide absorbance in the supernatant was measured at 280 nm following centrifugation at 12,000g before and after 75 min incubation at 24 °C. […] Cell death was analyzed using PI and FACS analysis. […]

## CC[C@H](C)[C@H](NC(=O)[C@H](C)NC(=O)[C@@H](N)Cc1c[nH]cn1)C(=O)N[C@@H](Cc1ccc(O)cc1)C(=O)N1CCC[C@H]1C(=O)N[C@@H](CCCNC(=N)N)C(=O)N[C@@H](Cc1c[nH]cn1)C(=O)N[C@H](CO)C(=O)N[C@H](Cc1c[nH]c2ccccc12)C(=O)N[C@@H](C(=O)N[C@H](Cc1c[nH]c2ccccc12)C(=O)N[C@H](CCC(=O)O)C(=O)N[C@H](CCCCN)C(=O)N[C@H](CCCCN)C(=O)N[C@H](CC(C)C)C(=O)N[C@H](CCC(=O)O)C(=O)N[C@@H](C(=O)N[C@H](C)C(=O)N[C@@H](C(=O)N[C@H](CC(N)=O)C(=O)N[C@H](CC(C)C)C(=O)N[C@H](C)C(=O)N[C@H](Cc1c[nH]c2ccccc12)C(=O)N[C@@H](C(=O)N[C@H](C)C(=O)NCC(=O)N[C@H](CC(N)=O)C(=O)N[C@H](CO)C(=O)N[C@H](CC(N)=O)C(=O)N[C@H](CCCCN)C(=O)N[C@H](Cc1c[nH]c2ccccc12)C(=O)N[C@@H](C(=O)N[C@H](Cc1c[nH]c2ccccc12)C(=O)N[C@H](CCCCN)C(=O)O)[C@H](C)O)[C@H](C)O)C(C)C)[C@H](C)O)[C@H](C)O [Tf‐D‐LP4]
[1]
  decrease of cellular ATP levels: about 40%
[2]
  decrease in peptide‐induced cell death in anti‐TfR antibody‐treated cells: about twofold
[3]
  increase in HK in the cytosolic fraction: about twofold
[4]
  apoptotic cell death (acridine orange/ethidium bromide): over 70%
[5]
  inhibition of purified HK‐I activity: but not Tf-D-LP4 inhibits HK-I activity
